US12698262B2, “Potassium salt of 2-[(4S)-8-fluoro-2-[4-(3-methoxyphenyl)piperazin-1-yl]-3-[2-methoxy-5-(trifluoromethyl)phenyl]-4H-quinazolin-4-yl]acetic acid” (AIC246 AG & Co. KG, priority 2020, dated 2026)
Several values for one entry are separate records, joined by “and”; a condition that tells them apart may be missing. Equal entries are not always repeated.

Experiment: Solubility test in buffers of different pHs (excess salt, HPLC determination of dissolved letermovir, final pH of mixture)
Assay type: physicochemical
Conditions: for Solubility / solubility at 2 h: stirred two hours at room temperature; for Solubility / Final pH / solubility at 2 h: Entries 1-3; for Final pH: final mixture; for solubility at 2 h: thermodynamic from solid
Method: Single Crystal X-ray Diffraction (SCXRD): The measured crystal was selected using a Zeiss stereomicroscope using polarized light and prepared under inert conditions immersed in perfluoropolyether as protecting oil for manipulation. Crystal structure determination was carried out using a Rigaku diffractometer equipped with a Pilatus 200K area detector, a Rigaku MicroMax-007HF microfocus rotating anode with MoKα radiation, Confocal Max Flux optics and an Oxford Cryosystems low temperature device Cryostream 700 plus (T=−173° C.). Full-sphere data collection was used with ω and φ scans. Programs used: Data collection and reduction with CrysAlisPro (Rigaku OD, 2015). V/0.60 A and absorption correction with Scale3 Abspack scaling algorithm (CrysAlisPro 1.171.39.12b (Rigaku OD, 2015)). Crystal structure solution was achieved using the computer program SHELXT (Sheldrick, G. M. Acta Cryst. 2015 A71, 3-8.) and visualized using the program SHELXle (C. B. Huebschle, G. M. Sheldrick & B. Dittrich; J. Appl. Cryst., 2011 44, 1281-1284). Missing atoms were subsequently located from difference Fourier synthesis and added to the atom list. Least-squares refinement on F0^2 using all measured intensities was carried out using the program SHELXL 2015 (SHELXL; Sheldrick, G. M. Acta Cryst., 2015 A71, 3-8.). All non-hydrogen atoms were refined including anisotropic displacement parameters. High Performance Liquid Chromatography (HPLC): • Instrument: Thermo Scientific Ultimate 3000 UHPLC • Column: Agilent Zorbax Eclipse XDB C-18, 150×4.6 mm, 5 μm • Flow rate: 1.0 ml/min • Solvent A: 0.1% formic acid in water • Solvent B: 0.1% formic acid in 100% methanol • Stop time: 27 minutes • Injection volume: 10 μl • Column temperature: 35° C. • Wavelength: 260 nm • Autosampler temperature: 10° C.
An excess of letermovir potassium mixed solvate (the salt of Example 1) or letermovir sodium mixed solvate (the salt of Example 4) was added to 2 mL of the corresponding buffer of different pHs. The saturated suspensions were stirred for two hours at room temperature. […] The final pH of the mixtures was also determined.

Compound	Solubility (buffer pH 2)	Solubility (buffer pH 5)	Solubility (buffer pH 6)	Final pH (initial buffer pH 1)	Final pH (initial buffer pH 2)	Final pH (initial buffer pH 5)	Final pH (initial buffer pH 6)	Final pH (initial buffer pH 7)	Final pH (initial buffer pH 8)	Final pH (initial buffer pH 9)	solubility at 2 h (pH 2, simulated gastric fluid, buffer pH 2)	solubility at 2 h (pH 5, aqueous buffer, buffer pH 5)	solubility at 2 h (pH 6, aqueous buffer, buffer pH 6)	solubility at 2 h (pH 8, aqueous buffer, buffer pH 8)	solubility at 2 h (pH 9, aqueous buffer, buffer pH 9)	pH of the final solution (aqueous medium, when letermovir concentration is above 100 mg/mL)	concentration levels achieved by dissolving in aqueous medium (aqueous medium, with respect to letermovir free base)
COc1cccc(N2CCN(C3=Nc4c(F)cccc4[C@H](CC(=O)[O-])N3c3cc(C(F)(F)F)ccc3OC)CC2)c1.[K+] (mixture of isomers) [potassium salt mixed solvate, potassium 2-[(4S)-8-fluoro-2-[4-(3-methoxyphenyl)piperazin-1-yl]-3-[2-methoxy-5-(trifluoromethyl)phenyl]-4H-quinazolin-4-yl]acetate]	10.63 mg/mL	16.50 mg/mL	1.17 mg/mL	4.5 and 6.6	7.2 and 7.3	7.1 and 7.2	6.3	7.1 and 7.0 and 7.4	7.7 and 7.6	7.7	14.4 mg/mL	14.3 mg/mL	1.27 mg/mL	> 100 mg/mL	> 100 mg/mL		
COc1cccc(N2CCN(C3=Nc4c(F)cccc4[C@H](CC(=O)[O-])N3c3cc(C(F)(F)F)ccc3OC)CC2)c1.[K+] [crystalline potassium salt of letermovir, potassium 2-[(4S)-8-fluoro-2-[4-(3-methoxyphenyl)piperazin-1-yl]-3-[2-methoxy-5-(trifluoromethyl)phenyl]-4H-quinazolin-4-yl]acetate]																7.4-7.8 and 7-8	above 100 mg/mL
